Reference: patent US20090299066A1, “TRIAZOLONE DERIVATIVES AS MMP INHIBITORS FOR THE TREATMENT OF ASTHMA AND COPD” (priority 2004, published 2009)

Assays:
Type in all cases: biochemical
[1] = target: T1, Human MMP9 (Homo sapiens, UniProt P14780); assay: Isolated enzyme assay, MMP9
T1 construct: made in house
Description: (§1) A protocol for testing against other matrix metalloproteinases, including MMP9, using expressed and purified pro MMP is described, for instance, by C. Graham Knight et al., (1992) FEBS Lett. 296(3):263-266.

[2] = target: T2, Human MMP14 (Homo sapiens, UniProt P50281); assay: Isolated enzyme assay, MMP14
T2 construct: made in house
Description: as §1

[3] = target: T3, Human MMP2 (Homo sapiens, UniProt P08253); assay: Isolated enzyme assay, MMP2
T3 construct: made in house
T3 sequence (P08253 110-660): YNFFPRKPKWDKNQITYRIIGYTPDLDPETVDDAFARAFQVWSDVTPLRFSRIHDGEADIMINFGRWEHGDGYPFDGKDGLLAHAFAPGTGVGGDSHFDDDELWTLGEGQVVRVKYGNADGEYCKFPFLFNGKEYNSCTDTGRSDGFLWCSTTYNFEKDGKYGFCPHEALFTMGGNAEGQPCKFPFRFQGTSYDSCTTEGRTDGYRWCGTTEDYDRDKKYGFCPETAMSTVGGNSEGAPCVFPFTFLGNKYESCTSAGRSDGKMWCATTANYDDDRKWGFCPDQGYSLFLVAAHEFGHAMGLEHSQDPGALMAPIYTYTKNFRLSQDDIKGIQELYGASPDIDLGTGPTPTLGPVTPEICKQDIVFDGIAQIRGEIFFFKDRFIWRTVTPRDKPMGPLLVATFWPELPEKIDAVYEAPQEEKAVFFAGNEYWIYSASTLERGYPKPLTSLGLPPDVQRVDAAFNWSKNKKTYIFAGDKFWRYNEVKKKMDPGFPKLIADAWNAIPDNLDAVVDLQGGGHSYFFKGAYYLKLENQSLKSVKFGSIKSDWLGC
Description: as §1

[4] = target: T4, Human MMP19 (Homo sapiens, UniProt Q99542); assay: Isolated enzyme assay, MMP19
T4 construct: made in house
T4 sequence (Q99542 98-508): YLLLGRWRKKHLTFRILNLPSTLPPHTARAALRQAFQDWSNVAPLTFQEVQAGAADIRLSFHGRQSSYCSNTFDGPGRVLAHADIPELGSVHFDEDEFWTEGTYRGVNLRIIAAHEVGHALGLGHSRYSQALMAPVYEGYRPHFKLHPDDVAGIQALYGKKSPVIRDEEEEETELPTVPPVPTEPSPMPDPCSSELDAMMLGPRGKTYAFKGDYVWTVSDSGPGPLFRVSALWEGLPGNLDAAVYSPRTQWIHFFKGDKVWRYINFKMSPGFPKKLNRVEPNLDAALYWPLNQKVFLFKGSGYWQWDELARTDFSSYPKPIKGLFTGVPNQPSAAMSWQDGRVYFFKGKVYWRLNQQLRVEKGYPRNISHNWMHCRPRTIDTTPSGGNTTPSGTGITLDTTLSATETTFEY
Description: as §1

[5] = target: T5, Human MMP8 (Homo sapiens, UniProt P22894); assay: Isolated enzyme assay, MMP8
T5 construct: made in house
Description: as §1

[6] = target: T6, Human MMP12 (Homo sapiens, UniProt P39900); assay: Isolated enzyme assay, MMP12 catalytic domain, fluorogenic substrate; conditions: recombinant human MMP12 catalytic domain
T6 construct: Recombinant human MMP12 catalytic domain may be expressed and purified as described by Parkar A. A. et al; made in house
Method: Recombinant human MMP12 catalytic domain may be expressed and purified as described by Parkar A. A. et al, (2000), Protein Expression and Purification, 20:152. The purified enzyme can be used to monitor inhibitors of activity as follows: MMP12 (50 ng/ml final concentration) is incubated for 60 minutes at room temperature with the synthetic substrate Mac-Pro-Cha-Gly-Nva-His-Ala-Dpa-NH2 in assay buffer (0.1M “Tris-HCl” (trade mark) buffer, pH 7.3 containing 0.1M NaCl, 20 mM CaCl2, 0.020 mM ZnCl and 0.05% (w/v) “Brij 35” (trade mark) detergent) in the presence (5 concentrations) or absence of inhibitors. Activity is determined by measuring the fluorescence at λex 320 nm and λem 405 nm. Percent inhibition is calculated as follows: % Inhibition is equal to the […].

T5 sequence (P22894 101-467): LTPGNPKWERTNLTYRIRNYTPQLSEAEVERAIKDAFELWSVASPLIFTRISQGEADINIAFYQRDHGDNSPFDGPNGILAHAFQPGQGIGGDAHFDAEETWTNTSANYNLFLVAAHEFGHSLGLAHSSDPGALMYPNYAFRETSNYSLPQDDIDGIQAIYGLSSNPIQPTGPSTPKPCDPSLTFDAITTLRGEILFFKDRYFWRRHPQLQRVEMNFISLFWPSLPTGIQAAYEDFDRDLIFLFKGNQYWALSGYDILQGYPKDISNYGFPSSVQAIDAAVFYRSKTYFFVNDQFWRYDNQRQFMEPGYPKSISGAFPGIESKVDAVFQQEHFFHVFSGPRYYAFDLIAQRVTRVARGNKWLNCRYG
T6 sequence (P39900 106-263 limits assumed): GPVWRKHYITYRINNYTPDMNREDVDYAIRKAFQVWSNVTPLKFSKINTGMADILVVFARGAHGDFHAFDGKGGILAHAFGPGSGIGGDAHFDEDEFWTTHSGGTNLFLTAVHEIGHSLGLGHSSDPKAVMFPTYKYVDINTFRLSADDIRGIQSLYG
T1 sequence (P14780 94-707): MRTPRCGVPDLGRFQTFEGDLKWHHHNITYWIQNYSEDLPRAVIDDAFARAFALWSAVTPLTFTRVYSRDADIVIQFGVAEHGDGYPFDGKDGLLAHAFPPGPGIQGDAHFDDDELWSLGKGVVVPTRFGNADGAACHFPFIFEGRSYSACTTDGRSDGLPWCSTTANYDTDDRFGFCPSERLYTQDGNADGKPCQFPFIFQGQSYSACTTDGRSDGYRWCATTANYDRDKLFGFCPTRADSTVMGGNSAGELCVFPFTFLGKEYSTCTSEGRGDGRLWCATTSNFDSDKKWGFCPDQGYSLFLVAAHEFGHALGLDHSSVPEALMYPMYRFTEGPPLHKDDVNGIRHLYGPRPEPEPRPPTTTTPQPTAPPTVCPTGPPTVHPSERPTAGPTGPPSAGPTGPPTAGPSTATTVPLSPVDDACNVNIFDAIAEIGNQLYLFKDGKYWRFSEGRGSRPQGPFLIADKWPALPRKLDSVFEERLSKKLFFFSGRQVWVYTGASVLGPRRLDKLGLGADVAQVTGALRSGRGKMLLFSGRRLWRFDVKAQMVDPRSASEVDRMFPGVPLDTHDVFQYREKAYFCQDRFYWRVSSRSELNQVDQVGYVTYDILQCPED

SMILES | IC50 [1] [nM] | IC50 [2] [µM] | IC50 [3] [nM] | IC50 [4] [nM] | IC50 [5] [nM] | IC50 [6] [nM]
O=c1[nH]nc(CS(=O)(=O)N2CCN(c3ccc(Cl)cc3)CC2)[nH]1 [Example 4, 5-({[4-(4-Chlorophenyl)piperazin-1-yl]sulfonyl}methyl)-2,4-dihydro-3H-1,2,4-triazol-3-one] | 414 | 1.75 | 142 | 64 | 31 | 18
O=c1[nH]nc(CS(=O)(=O)N2CC=C(C#Cc3cnc(C(F)(F)F)nc3)CC2)[nH]1 [Example 6, 5-({[4-{[2-(Trifluoromethyl)pyrimidin-5-yl]ethynyl}-3,6-dihydropyridin-1(2H)-yl]sulfonyl}methyl)-2,4-dihydro-3H-1,2,4-triazol-3-one] | 5.7 | 6.85 | 263 | 4300 | 284 | 2.4
O=c1[nH]nc(CCS(=O)(=O)N2CCC(Oc3ccc(Cl)cn3)CC2)[nH]1 [Example 2, 5-[2-({4-[(5-Chloropyridin-2-yl)oxy]piperidin-1-yl}sulfonyl)ethyl]-2,4-dihydro-3H-1,2,4-triazol-3-one] | 318 | 6.66 | 1010 |  | 243 | 65
